Results from the supplement of paper PMC10307832.

How the values were obtained:
Experiment in all cases: relative viability (nuclei count vs DMSO), 5 days (fraction); higher = more cells survive
NCI-H2009 = tested on: NCI-H2009
In short: (§1)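 Lung cancer cell lines were pin-tool dosed in 1536-well plates on the day after seeding, with either a lone drug or a fixed anchor-drug dose plus five library-drug doses (not always all listed) in √10 steps. Nuclei were counted on 4× images after 5 days. Relative viability is the ratio of treated-well to vehicle-well nuclei counts, with each value a median of duplicate plates.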

NCI-H647 = tested on: NCI-H647
In short: as §1

HCC-366 = tested on: HCC-366
In short: as §1

NCI-H2405 = tested on: NCI-H2405
In short: as §1

NCI-H661 = tested on: NCI-H661
In short: as §1

NCI-H2087 = tested on: NCI-H2087
In short: as §1

NCI-H1395 = tested on: NCI-H1395
In short: as §1

SK-MES-1 = tested on: SK-MES-1
In short: as §1

LOU-NH91 = tested on: LOU-NH91
In short: as §1

LC-2-ad = tested on: LC-2-ad
In short: as §1

SK-LU-1 = tested on: SK-LU-1
In short: as §1

BEN = tested on: BEN
In short: as §1

For `COc1cc(N2CCC(C(N)=O)CC2)ccc1Nc1nc(N)c(Cl)c(Nc2ccccc2S(=O)(=O)C(C)C)n1` [HG-5-88-01] + CC(=O)c1c(C)c2cnc(Nc3ccc(N4CCNCC4)cn3)nc2n(C2CCCC2)c1=O [Palbociclib] (partner 0.5 µM), the relative viability (NCI-H2009; first compound 1.265 µM) was 0.216, the relative viability (NCI-H2009; first compound 4 µM) was 0.224 and the relative viability (NCI-H647; first compound 0.04 µM) was 0.388. It also gave a relative viability (NCI-H647; first compound 0.1265 µM) of 0.423, a relative viability (NCI-H647; first compound 1.265 µM) of 0.444 and a relative viability (NCI-H647; first compound 4 µM) of 0.494. For the same compound, the relative viability (HCC-366; first compound 0.04 µM) was 0.397, the relative viability (HCC-366; first compound 0.1265 µM) was 0.41 and the relative viability (HCC-366; first compound 0.4 µM) was 0.356. For the same compound, the relative viability (HCC-366; first compound 1.265 µM) was 0.41, the relative viability (HCC-366; first compound 4 µM) was 0.465 and the relative viability (NCI-H2405; first compound 0.04 µM) was 0.515. It also gave a relative viability (NCI-H2405; first compound 0.1265 µM) of 0.523, a relative viability (NCI-H2405; first compound 0.4 µM) of 0.528 and a relative viability (NCI-H2405; first compound 1.265 µM) of 0.348. The relative viability (NCI-H2405; first compound 4 µM) was 0.462, the relative viability (NCI-H661; first compound 0.04 µM) was 0.384 and the relative viability (NCI-H661; first compound 0.1265 µM) was 0.417. For the same compound, the relative viability (NCI-H661; first compound 0.4 µM) was 0.416, the relative viability (NCI-H661; first compound 1.265 µM) was 0.359 and the relative viability (NCI-H661; first compound 4 µM) was 0.426. For the same compound, the relative viability (NCI-H2087; first compound 0.04 µM) was 0.242, the relative viability (NCI-H2087; first compound 0.1265 µM) was 0.246 and the relative viability (NCI-H2087; first compound 0.4 µM) was 0.219. The relative viability (NCI-H2087; first compound 1.265 µM) was 0.207, the relative viability (NCI-H2087; first compound 4 µM) was 0.244 and the relative viability (NCI-H1395; first compound 0.04 µM) was 0.593. For the same compound, the relative viability (NCI-H1395; first compound 0.1265 µM) was 0.754, the relative viability (NCI-H1395; first compound 0.4 µM) was 0.613 and the relative viability (NCI-H1395; first compound 1.265 µM) was 0.474. It also gave a relative viability (NCI-H1395; first compound 4 µM) of 0.664, a relative viability (SK-MES-1; first compound 0.04 µM) of 0.319 and a relative viability (SK-MES-1; first compound 0.1265 µM) of 0.273. For the same compound, the relative viability (SK-MES-1; first compound 0.4 µM) was 0.27, the relative viability (SK-MES-1; first compound 1.265 µM) was 0.304 and the relative viability (SK-MES-1; first compound 4 µM) was 0.247. It also gave a relative viability (LOU-NH91; first compound 0.04 µM) of 0.533, a relative viability (LOU-NH91; first compound 0.1265 µM) of 0.491 and a relative viability (LOU-NH91; first compound 0.4 µM) of 0.585. For the same compound, the relative viability (LOU-NH91; first compound 1.265 µM) was 0.509, the relative viability (LOU-NH91; first compound 4 µM) was 0.55 and the relative viability (LC-2-ad; first compound 0.04 µM) was 0.471. The relative viability (LC-2-ad; first compound 0.1265 µM) was 0.431, the relative viability (LC-2-ad; first compound 0.4 µM) was 0.449 and the relative viability (LC-2-ad; first compound 1.265 µM) was 0.474. The relative viability (LC-2-ad; first compound 4 µM) was 0.516, the relative viability (SK-LU-1; first compound 0.04 µM) was 0.363 and the relative viability (SK-LU-1; first compound 0.1265 µM) was 0.422. For the same compound, the relative viability (SK-LU-1; first compound 0.4 µM) was 0.505, the relative viability (SK-LU-1; first compound 1.265 µM) was 0.329 and the relative viability (SK-LU-1; first compound 4 µM) was 0.332. It also gave a relative viability (BEN; first compound 0.04 µM) of 0.451, a relative viability (BEN; first compound 0.1265 µM) of 0.461 and a relative viability (BEN; first compound 0.4 µM) of 0.409. The relative viability (BEN; first compound 1.265 µM) was 0.465 and the relative viability (BEN; first compound 4 µM) was 0.411.
